Legend:
[1] = tested on: mice; test: Serum markers of hepatic, renal and cardiac toxicity; format: in vivo; conditions: 1 mg/kg, 2 weeks
Description: Serum aspartate aminotransferase (AST), alanine aminotransferase (ALT), blood urea nitrogen (BUN), Creatinine, Creatine kinase MB (CKMB), and lactate dehydrogenase (LDH) levels were analyzed with Fujifilm Dri-Chem 3500 s (Fujifilm, Kanagawa, Japan) according to the manufacturer’s instructions. The slides GOT/AST-P III, GPT/ALT-P III, BUN-P III, CRE-P III, CKMB-P, and LDH-P III were used.
a-f. Serum levels of aspartate transaminase (AST), alanine transaminase (ALT), blood urea nitrogen (BUN), creatinine, creatine kinase MB (CKMB), and lactate dehydrogenase (LDH) in 2 weeks of LJ-4378 (1mg/kg) treatment in mice. n = 3. Statistical significance was determined using an unpaired two-tailed t-test.

[2] = tested on: WR mice; test: WR model: indirect calorimetry and adipose immunoblot after treatment cessation; format: in vivo, C57BL/6 J male mice
Text: To assess post-treatment weight rebound (WR), the mice previously treated with vehicle, LJ-4378, or TZP were maintained on HFD for an additional 4 weeks following treatment cessation. Treatment protocols for the WR groups were identical to those of the HFD groups. In total, nine experimental groups were established: NCD + CTL, NCD + LJ, NCD + TZP; HFD + CTL, HFD + LJ, HFD + TZP; and WR + CTL, WR + LJ, WR + TZP. The volume of oxygen consumed (VO2), carbon dioxide produced (VCO2), respiratory exchange ratio (RER), energy expenditure, activity, and food intake were measured with PhenoMaster (TSE Systems, Bad Homburg, Germany). Indirect calorimetry was performed under controlled conditions, with a stable ambient temperature of 24 °C and a 12 h light/12-h dark cycle. Mice fed HFD were administered vehicle, LJ-4378, or TZP for 14 days, and the last 2 days of treatment were conducted during indirect calorimetry analysis. The WR model was examined by indirect calorimetry after 2 and 4 weeks of the weight regaining phase.
For protein extraction, we utilized PRO-RERP Protein Extraction Solution (17081, iNtRON Biotechnology, Gyeonggi-do, Korea), supplemented with […] Protease Inhibitor (S8820, Sigma, St. Louis, MO, USA) and PhosSTOP phosphatase inhibitor (#4906837001, Roche, Basel, Switzerland). Protein concentrations were determined using the Pierce BCA protein assay Kit (#23227, Thermo Fisher, Waltham, Massachusetts, USA) by measuring absorbance at 562 nm with a MultiSkan GO spectrophotometer (Thermo Fisher). The quantified proteins were loaded and separated in 12% SDS-PAGE gels and transferred to polyvinylidene difluoride (PVDF) membranes (Bio-Rad, Hercules, CA, USA). Membranes were blocked in 5% bovine serum albumin or skim milk in Tris-buffered saline with 0.1% Tween 20 (TBST) for 1 h, followed by overnight incubation with primary antibodies. The next day, membranes were washed 3 times with TBST and incubated for 1 h with horseradish peroxidase (HRP)-conjugated secondary antibody: Goat anti-rabbit (1:3000, #31460, Thermo Fisher) and Goat anti-Mouse IgG (1:3000, 115–035-174, Jackson ImmunoResearch). After secondary antibody incubation, membranes were washed 3 times with TBST and detected with the Fusion Solo chemiluminescence imaging system (Vilber Lourmat, France). EvolutionCapt (version 17.03) software and the ImageJ (National Institutes of Health, Bethesda, MD, USA) program were used for analysis and to quantify the protein level.

[3] = Plasma stability assay; format: in vitro ADME, human; conditions: 37 °C, 30 min
Description: The plasma stability of LJ-4378 was evaluated using 100% plasma obtained from human (Biochemed, BC22089NCP, sodium citrate), rat (Innovative, IRT-N, sodium citrate), and mouse (Biochemed, 029-APSC-MP, sodium citrate). 10 Μm of LJ-4378 was added to the plasma, and samples were incubated at 37 °C for 0, 30, and 120 min. At each time point, an aliquot of the plasma was removed and mixed with acetonitrile containing the internal standard, chlorpropamide (TRC, C424800). […] The supernatant was injected into the LC–MS/MS system for quantification of the remaining compound. Analysis was performed using a Nexera XR system (Shimadzu, Japan) with a TSQ Vantage mass spectrometer (Thermo, USA). […] Data acquisition was conducted in MRM mode using Xcalibur software (version 4.4). All experiments were performed in duplicate with a deviation within 15%, and the percentage of compound remaining (% Remaining) at each time point was calculated relative to the non-incubated control sample. For quality control, procaine and enalapril (each at 10 μM) were used as reference compounds and were confirmed to fall within acceptable ranges.

[4] = two weeks after treatment cessation

CCCCC#Cc1nc(N)c2ncn([C@@H]3SC[C@@H](O)[C@H]3O)c2n1 [LJ-4378]
hepatic, renal, and cardiac injury markers (AST, ALT, BUN, creatinine, CKMB, LDH) [1]: no evidence of organ toxicity
P-HSL and mitochondrial proteins in BAT and iWAT, versus WR controls and TZP ([2]; 2 weeks after treatment cessation): higher levels
energy expenditure, ANCOVA adjusted for body mass, versus vehicle or TZP ([2]; 2 weeks post-treatment, WR): higher energy expenditure
elevated energy expenditure after 4 weeks of WR ([2]; 4 weeks post-treatment): no longer evident
VO2, VCO2 and energy expenditure compared with TZP-treated group [2, 4]: significantly higher
VO2, VCO2 and energy expenditure compared with WR controls [2, 4]: elevated
% Remaining compound, Human plasma 30 min [3]: 97.0%
